Assay results: paper PMC5218480 (PLoS ONE, 2017)

System: MV-4-11 cells
Test: Gene expression microarray analysis (Affymetrix PrimeView) and GSEA
Assay type: cell-based, human
Set-up: RFU PODN (11730768_x_at) / Fold change /veh PODN (11730768_x_at) / RFU LINC00158 (11744669_a_at) / Fold change /veh LINC00158 (11744669_a_at) / RFU DUSP10 (11751237_a_at) / Fold change /veh DUSP10 (11751237_a_at) / RFU ID3 (11757404_x_at) / Fold change /veh ID3 (11757404_x_at) / RFU PLEKHG5 (11737974_s_at) / Fold change /veh PLEKHG5 (11737974_s_at) / RFU LRRC4B (11730491_at) / Fold change /veh LRRC4B (11730491_at) / RFU GIMAP4 (11747438_a_at) / Fold change /veh GIMAP4 (11747438_a_at) / RFU KRT8 (11758183_x_at) / Fold change /veh KRT8 (11758183_x_at) / RFU CNN1 (11734310_a_at) / Fold change /veh CNN1 (11734310_a_at) / RFU VPS37D (11726825_at) / Fold change /veh VPS37D (11726825_at) / RFU C10orf10 (11716522_x_at) / Fold change /veh C10orf10 (11716522_x_at) / RFU KIR2DL2 /// KIR2DL4 /// KIR2DL5A /// KIR2DL5B /// KIR2DS1 /// KIR2DS2 /// KIR2DS3 /// KIR2DS4 /// KIR3DL3 /// KIR3DL3 /// KIR3DS1 (11738374_at) / Fold change /veh KIR2DL2 /// KIR2DL4 /// KIR2DL5A /// KIR2DL5B /// KIR2DS1 /// KIR2DS2 /// KIR2DS3 /// KIR2DS4 /// KIR3DL3 /// KIR3DL3 /// KIR3DS1 (11738374_at) / RFU C1QL1 (11718748_at) / Fold change /veh C1QL1 (11718748_at) / RFU TMPRSS4 (11747572_a_at) / Fold change /veh TMPRSS4 (11747572_a_at) / RFU HAMP (11756126_x_at) / Fold change /veh HAMP (11756126_x_at) / RFU RNFT2 (11725882_a_at) / Fold change /veh RNFT2 (11725882_a_at) / RFU NR4A2 (11747474_a_at) / Fold change /veh NR4A2 (11747474_a_at) / RFU ABCC12 (11746883_a_at) / Fold change /veh ABCC12 (11746883_a_at) / RFU TMEM136 (11760407_x_at) / Fold change /veh TMEM136 (11760407_x_at) / RFU CLDN22 /// WWC2 (11732394_at) / Fold change /veh CLDN22 /// WWC2 (11732394_at) / RFU HLA-DPB1 (11760878_x_at) / Fold change /veh HLA-DPB1 (11760878_x_at) / RFU SPINT1 (11716480_a_at) / Fold change /veh SPINT1 (11716480_a_at) / RFU GAP43 (11754022_s_at) / Fold change /veh GAP43 (11754022_s_at) / RFU A4GNT (11735810_at) / Fold change /veh A4GNT (11735810_at) / RFU PRB3 (11715151_x_at) / Fold change /veh PRB3 (11715151_x_at) / RFU TUBB4B (11761932_at) / Fold change /veh TUBB4B (11761932_at) / RFU CAPN14 (11732068_a_at) / Fold change /veh CAPN14 (11732068_a_at) / RFU TMCC2 (11721928_a_at) / Fold change /veh TMCC2 (11721928_a_at) / RFU IRGQ (11745062_a_at) / Fold change /veh IRGQ (11745062_a_at) / RFU FAM174B (11720279_a_at) / Fold change /veh FAM174B (11720279_a_at) / RFU TMPRSS4 (11748680_a_at) / Fold change /veh TMPRSS4 (11748680_a_at) / RFU FAM212B (11763350_a_at) / Fold change /veh FAM212B (11763350_a_at) / RFU PLEKHG5 (11743358_a_at) / Fold change /veh PLEKHG5 (11743358_a_at) / RFU ZSCAN30 (11745921_a_at) / Fold change /veh ZSCAN30 (11745921_a_at) / RFU CMKLR1 (11741424_a_at) / Fold change /veh CMKLR1 (11741424_a_at) / RFU LOC101060620 /// MAPK8IP1 (11723275_at) / Fold change /veh LOC101060620 /// MAPK8IP1 (11723275_at) / RFU SPTSSB (11747773_x_at) / Fold change /veh SPTSSB (11747773_x_at) / RFU PRSS12 (11739890_at) / Fold change /veh PRSS12 (11739890_at) / RFU BIN1 (11741810_x_at) / Fold change /veh BIN1 (11741810_x_at) / RFU WNT11 (11732464_a_at) / Fold change /veh WNT11 (11732464_a_at) / RFU C10orf10 (11716521_a_at) / Fold change /veh C10orf10 (11716521_a_at) / RFU C5orf56 (11738089_at) / Fold change /veh C5orf56 (11738089_at) / RFU CYB561 (11721691_x_at) / Fold change /veh CYB561 (11721691_x_at) / RFU ANKRD19P (11752326_a_at) / Fold change /veh ANKRD19P (11752326_a_at) / RFU OR2T12 /// OR2T33 /// OR2T8 (11738714_s_at) / Fold change /veh OR2T12 /// OR2T33 /// OR2T8 (11738714_s_at) / RFU VCAN (11748164_a_at) / Fold change /veh VCAN (11748164_a_at) / RFU JSRP1 (11732532_at) / Fold change /veh JSRP1 (11732532_at) / RFU KRTAP10-11 (11738290_x_at) / Fold change /veh KRTAP10-11 (11738290_x_at) / RFU MYO3A (11730013_a_at) / Fold change /veh MYO3A (11730013_a_at) / RFU EBF3 (11725865_a_at) / Fold change /veh EBF3 (11725865_a_at) / RFU CAMK2N1 (11719241_x_at) / Fold change /veh CAMK2N1 (11719241_x_at) / RFU C5orf56 (11738088_a_at) / Fold change /veh C5orf56 (11738088_a_at) / RFU OLFML3 (11715873_a_at) / Fold change /veh OLFML3 (11715873_a_at) / RFU LOC100653217 /// NTM (11731650_a_at) / Fold change /veh LOC100653217 /// NTM (11731650_a_at) / RFU MAPK11 (11762145_a_at) / Fold change /veh MAPK11 (11762145_a_at) / RFU FIZ1 (11724087_x_at) / Fold change /veh FIZ1 (11724087_x_at) / RFU OASL (11726364_x_at) / Fold change /veh OASL (11726364_x_at) / RFU SOX15 (11748057_x_at) / Fold change /veh SOX15 (11748057_x_at) / RFU CD79A (11719716_a_at) / Fold change /veh CD79A (11719716_a_at) / RFU HIST1H1D (11736915_at) / Fold change /veh HIST1H1D (11736915_at) / RFU CASKIN2 (11723855_a_at) / Fold change /veh CASKIN2 (11723855_a_at) / RFU LOC730098 (11760151_x_at) / Fold change /veh LOC730098 (11760151_x_at) / RFU OR4N2 (11742367_at) / Fold change /veh OR4N2 (11742367_at) / RFU PRRT2 (11749266_a_at) / Fold change /veh PRRT2 (11749266_a_at) / RFU SNX32 (11753110_a_at) / Fold change /veh SNX32 (11753110_a_at) / RFU CDHR5 (11726645_a_at) / Fold change /veh CDHR5 (11726645_a_at) / RFU RCAN1 (11760418_a_at) / Fold change /veh RCAN1 (11760418_a_at) / RFU FAM167A (11723789_a_at) / Fold change /veh FAM167A (11723789_a_at) / RFU FAM26E (11764081_at) / Fold change /veh FAM26E (11764081_at) / RFU ISYNA1 (11749810_s_at) / Fold change /veh ISYNA1 (11749810_s_at) / RFU ACY1 (11761880_at) / Fold change /veh ACY1 (11761880_at) / RFU 11764098_at / Fold change /veh 11764098_at / RFU SAMD14 (11745864_x_at) / Fold change /veh SAMD14 (11745864_x_at) / RFU NPB (11741838_a_at) / Fold change /veh NPB (11741838_a_at) / RFU TMPRSS6 (11731388_a_at) / Fold change /veh TMPRSS6 (11731388_a_at) / RFU KRTAP10-2 (11738614_at) / Fold change /veh KRTAP10-2 (11738614_at) / RFU ARHGAP8 /// PRR5-ARHGAP8 (11727945_x_at) / Fold change /veh ARHGAP8 /// PRR5-ARHGAP8 (11727945_x_at) / RFU KRTAP5-7 /// NADSYN1 (11734609_at) / Fold change /veh KRTAP5-7 /// NADSYN1 (11734609_at) / RFU RASL12 (11751679_a_at) / Fold change /veh RASL12 (11751679_a_at) / RFU CDKN2B (11736163_a_at) / Fold change /veh CDKN2B (11736163_a_at) / RFU PRF1 (11729649_at) / Fold change /veh PRF1 (11729649_at) / RFU, ZNF638 /// ZNF638-IT1 / Fold change vs veh, ZNF638 /// ZNF638-IT1 / RFU, PANK3 / Fold change vs veh, PANK3 / RFU, SH3YL1 / Fold change vs veh, SH3YL1 / RFU, ZEB2 / Fold change vs veh, ZEB2 / RFU, NRIP1 / Fold change vs veh, NRIP1 / RFU, PTTG1IP / Fold change vs veh, PTTG1IP / RFU, CAPN2 / Fold change vs veh, CAPN2 / RFU, MED14 / Fold change vs veh, MED14 / RFU, SNORA58 / Fold change vs veh, SNORA58 / RFU, C1orf63 / Fold change vs veh, C1orf63 / RFU, LRRFIP1 / Fold change vs veh, LRRFIP1 / RFU, NDUFAF7 / Fold change vs veh, NDUFAF7 / RFU, SLC12A2 / Fold change vs veh, SLC12A2 / RFU, IBTK / Fold change vs veh, IBTK / RFU, ESF1 / Fold change vs veh, ESF1 / Fold change vs veh, TMEM50B / RFU, TAOK1 / Fold change vs veh, TAOK1 / RFU, ACBD3 / Fold change vs veh, ACBD3 / RFU, TMA16 / Fold change vs veh, TMA16 / RFU, RWDD3 / Fold change vs veh, RWDD3 / RFU, BCAT1 / Fold change vs veh, BCAT1 / RFU, EDEM3 / Fold change vs veh, EDEM3 / RFU, TMEM33 / Fold change vs veh, TMEM33 / RFU, WDR75 / Fold change vs veh, WDR75 / RFU, AHCTF1 / Fold change vs veh, AHCTF1 / RFU, TFRC / Fold change vs veh, TFRC / RFU, ZDHHC17 / Fold change vs veh, ZDHHC17 / RFU, NOM1 / Fold change vs veh, NOM1 / RFU, ARL8B / Fold change vs veh, ARL8B / RFU, ZBTB11 / Fold change vs veh, ZBTB11 / RFU, TAMM41 / Fold change vs veh, TAMM41 / RFU, KIAA1704 /// LOC100996395 / Fold change vs veh, KIAA1704 /// LOC100996395 / RFU, ING1 / Fold change vs veh, ING1 / RFU, TRMT61B / Fold change vs veh, TRMT61B / RFU, FUBP3 / Fold change vs veh, FUBP3 / RFU, TP53 / Fold change vs veh, TP53 / RFU, TNKS2 / Fold change vs veh, TNKS2 / RFU, ZFP14 / Fold change vs veh, ZFP14 / RFU, ACTR2 / Fold change vs veh, ACTR2 / RFU, PPP3R1 / Fold change vs veh, PPP3R1 / RFU, PIK3R1 / Fold change vs veh, PIK3R1 / RFU, HNRNPA1 / Fold change vs veh, HNRNPA1 / RFU, RNF170 / Fold change vs veh, RNF170 / RFU, ZNF28 / Fold change vs veh, ZNF28 / RFU, RNGTT / Fold change vs veh, RNGTT / RFU, OGT / Fold change vs veh, OGT / RFU, BRD1 / Fold change vs veh, BRD1 / RFU, MARS / Fold change vs veh, MARS / RFU, ZNF655 / Fold change vs veh, ZNF655 / RFU, FAHD1 / Fold change vs veh, FAHD1 / RFU, BDP1 / Fold change vs veh, BDP1 / RFU, LRRCC1 / Fold change vs veh, LRRCC1 / RFU, ARID1A / Fold change vs veh, ARID1A / RFU, ZNF146 / Fold change vs veh, ZNF146 / RFU, ZNF330 / Fold change vs veh, ZNF330 / RFU, GPN3 / Fold change vs veh, GPN3 / RFU, C9orf123 / Fold change vs veh, C9orf123 / RFU, N4BP2L2 / Fold change vs veh, N4BP2L2 / RFU, ARFIP1 / Fold change vs veh, ARFIP1 / RFU, FAM179B / Fold change vs veh, FAM179B / RFU, BCL10 / Fold change vs veh, BCL10 / RFU, UHRF1BP1L / Fold change vs veh, UHRF1BP1L / RFU, BET1 / Fold change vs veh, BET1 / RFU, CNOT2 / Fold change vs veh, CNOT2 / RFU, ZNF268 / Fold change vs veh, ZNF268 / Fold change vs veh, ZNF507 / RFU, DGCR2 / Fold change vs veh, DGCR2 / RFU, WDSUB1 / Fold change vs veh, WDSUB1 / Fold change vs veh, HSP90B1 /// MIR3652 / RFU, ADSS / Fold change vs veh, ADSS / RFU, GK / Fold change vs veh, GK / RFU, ZNF148 / Fold change vs veh, ZNF148 / RFU, TAF9 / Fold change vs veh, TAF9 / RFU, SLC1A5 / Fold change vs veh, SLC1A5 / RFU, SLMO2 / Fold change vs veh, SLMO2 / RFU, ABCC4 / Fold change vs veh, ABCC4 / RFU, LOC101060439 /// RAP1B / Fold change vs veh, LOC101060439 /// RAP1B / RFU, RFX7 / Fold change vs veh, RFX7 / RFU, GTPBP10 / Fold change vs veh, GTPBP10 / RFU, CNEP1R1 / Fold change vs veh, CNEP1R1 / RFU, BIVM-ERCC5 /// ERCC5 / Fold change vs veh, BIVM-ERCC5 /// ERCC5 / RFU, ILF3 / Fold change vs veh, ILF3 / RFU 11762660_at / Fold change /veh 11762660_at / RFU VCAN (11757783_s_at) / Fold change /veh VCAN (11757783_s_at) / RFU DDX43 (11728927_at) / Fold change /veh DDX43 (11728927_at) / RFU KRT8 (11758188_x_at) / Fold change /veh KRT8 (11758188_x_at) / RFU NKD1 (11759106_at) / Fold change /veh NKD1 (11759106_at) / RFU SRD5A1 (11742802_a_at) / Fold change /veh SRD5A1 (11742802_a_at) / RFU TPSAB1 /// TPSB2 (11721975_s_at) / Fold change /veh TPSAB1 /// TPSB2 (11721975_s_at) / RFU GSTM3 (11746129_a_at) / Fold change /veh GSTM3 (11746129_a_at) / RFU IL23R (11737362_x_at) / Fold change /veh IL23R (11737362_x_at) / RFU TMEM51 (11727254_a_at) / Fold change /veh TMEM51 (11727254_a_at) / RFU PIWIL2 (11732686_x_at) / Fold change /veh PIWIL2 (11732686_x_at) / RFU ORM1 (11744905_x_at) / Fold change /veh ORM1 (11744905_x_at) / RFU CCDC152 (11743942_at) / Fold change /veh CCDC152 (11743942_at) / RFU ECM1 (11717891_a_at) / Fold change /veh ECM1 (11717891_a_at) / RFU IL23R (11748794_a_at) / Fold change /veh IL23R (11748794_a_at) / RFU TNFAIP8L3 (11732012_x_at) / Fold change /veh TNFAIP8L3 (11732012_x_at) / RFU MBOAT4 (11741988_at) / Fold change /veh MBOAT4 (11741988_at) / RFU 11764193_at / Fold change /veh 11764193_at / RFU TMEM53 (11763286_at) / Fold change /veh TMEM53 (11763286_at) / RFU MAGEB2 (11727129_at) / Fold change /veh MAGEB2 (11727129_at) / RFU TMEM200A (11744735_a_at) / Fold change /veh TMEM200A (11744735_a_at) / RFU CCDC152 (11751479_a_at) / Fold change /veh CCDC152 (11751479_a_at) / RFU FAM211A (11726209_a_at) / Fold change /veh FAM211A (11726209_a_at) / RFU RGS16 (11746705_a_at) / Fold change /veh RGS16 (11746705_a_at) / RFU VCAN (11755009_s_at) / Fold change /veh VCAN (11755009_s_at) / RFU RHOB (11743442_s_at) / Fold change /veh RHOB (11743442_s_at) / RFU RGS16 (11720943_a_at) / Fold change /veh RGS16 (11720943_a_at) / RFU RGS16 (11720944_at) / Fold change /veh RGS16 (11720944_at) / RFU, VPS4B / Fold change vs veh, VPS4B / RFU, CREB1 / Fold change vs veh, CREB1 / RFU, DNAJC13 / Fold change vs veh, DNAJC13 / RFU, GNAQ / Fold change vs veh, GNAQ / RFU, CDK5R1 / Fold change vs veh, CDK5R1 / RFU, ZRANB3 / Fold change vs veh, ZRANB3 / RFU, CUL4A / Fold change vs veh, CUL4A / RFU, CCNY / Fold change vs veh, CCNY / RFU, UFL1 / Fold change vs veh, UFL1 / RFU, COG3 / Fold change vs veh, COG3 / RFU, DIAPH2 / Fold change vs veh, DIAPH2 / RFU, SKA2 / Fold change vs veh, SKA2 / RFU, AFF3 / Fold change vs veh, AFF3 / RFU, LMF1 / Fold change vs veh, LMF1 / RFU, IPO11 / Fold change vs veh, IPO11 / RFU, DFFB / Fold change vs veh, DFFB / RFU, FOXP1 / Fold change vs veh, FOXP1 / RFU, CARD8 / Fold change vs veh, CARD8 / RFU, STRN3 / Fold change vs veh, STRN3 / RFU, ADK / Fold change vs veh, ADK / RFU, RASSF2 / Fold change vs veh, RASSF2 / RFU, WIPF1 / Fold change vs veh, WIPF1 / RFU, LARP1B / Fold change vs veh, LARP1B / RFU, RASA1 / Fold change vs veh, RASA1 / RFU, RB1 / Fold change vs veh, RB1 / RFU, PPFIA1 / Fold change vs veh, PPFIA1 / RFU, MAT2A / Fold change vs veh, MAT2A / RFU, CCT5 / Fold change vs veh, CCT5 / RFU, WDR92 / Fold change vs veh, WDR92 / RFU, CUX1 / Fold change vs veh, CUX1 / RFU, TTC7A / Fold change vs veh, TTC7A / RFU, TMEM135 / Fold change vs veh, TMEM135 / RFU, DEPTOR / Fold change vs veh, DEPTOR / RFU, CPM / Fold change vs veh, CPM / RFU, DNAJB6 / Fold change vs veh, DNAJB6 / RFU, CACNA2D3 / Fold change vs veh, CACNA2D3 / RFU, DTX4 / Fold change vs veh, DTX4 / RFU, TFCP2 / Fold change vs veh, TFCP2 / RFU, GMCL1 /// GMCL1P1 / Fold change vs veh, GMCL1 /// GMCL1P1 / RFU, AEBP2 / Fold change vs veh, AEBP2 / RFU, SNHG1 /// SNORD22 /// SNORD25 /// SNORD26 /// SNORD27 /// SNORD28 /// SNORD29 /// SNORD31 / Fold change vs veh, SNHG1 /// SNORD22 /// SNORD25 /// SNORD26 /// SNORD27 /// SNORD28 /// SNORD29 /// SNORD31 / Fold change (Aza/veh), C12orf56 (ProbeSet 11735607_a_at) / Fold change (ACY-1035/veh), C12orf56 (ProbeSet 11735607_a_at) / Fold change (Aza/veh), FGFR1OP (ProbeSet 11751329_s_at) / Fold change (ACY-1035/veh), FGFR1OP (ProbeSet 11751329_s_at) / Fold change (Aza/veh), VPS36 (ProbeSet 11739960_a_at) / Fold change (ACY-1035/veh), VPS36 (ProbeSet 11739960_a_at) / RFU SYPL1 (11715823_x_at) / Fold change /veh SYPL1 (11715823_x_at) / RFU IGFBP7 (11715501_s_at) / Fold change /veh IGFBP7 (11715501_s_at) / RFU REEP3 (11722064_at) / Fold change /veh REEP3 (11722064_at) / RFU IGLL1 (11728026_x_at) / Fold change /veh IGLL1 (11728026_x_at): dose or concentration left out as unconfirmed
Settings: ProbeSet 11728271_at; LIST B

Question: `Nc1ncn([C@@H]2O[C@H](CO)[C@@H](O)[C@H]2O)c(=O)n1` [azacitidine] was tested. Which “Fold change vs veh, ZNF330” value did it give?
Answer: Its value is 0.94.
